From ChEMBL document CHEMBL3046697, “Syntheses, antifeedant activity, and QSAR analysis of new oxa(thia)diazolyl 3(2H)-pyridazinones” (J Agric Food Chem, 2005) come the findings set out here.

SMILES strings stand for the structures.

Series [1] is described as follows: Hydrophobicity, log P of the compound. Format: physicochemical. The settings on record: octanol/water.
Another series relates to Mythimna separata. The experiment in a line: Antifeedant activity against second-instar larvae of Mythimna separata (Oriental armyworm) in compound treated leaves assessed as growth inhibition measured after 5 days by chronic growth bioassay. It counts as functional, organism-based. Conditions: 120 h.

In series [1], `CC(C)(C)n1ncc(OCc2nnc(-c3ccccc3F)o2)c(Cl)c1=O` registered a logP of 2.89. Besides, the values for the EC50 in the series with Mythimna separata (read-out: EC50) and in the series with Mythimna separata (read-out: pEC50 (converted)) were 16.8 µg/mL and 16.8 µM, respectively.
Take `CCCCn1ncc(OCc2nnc(-c3ccc(F)cc3)o2)c(Cl)c1=O`: the values for the EC50 in the series with Mythimna separata (read-out: EC50) and in the series with Mythimna separata (read-out: pEC50 (converted)) were 162 µg/mL and 161 µM, respectively.
The corresponding values for `CCCCn1ncc(OCc2nnc(-c3ccc(Cl)cc3)o2)c(Cl)c1=O` are 224 µg/mL and 223 µM.
With `CCn1ncc(OCc2nnc(-c3ccccc3)o2)c(Cl)c1=O`, the EC50 in the series on Mythimna separata (read-out: EC50) is more than 300 µg/mL; with Mythimna separata (read-out: pEC50 (converted)), more than 300 µM.
On to `CCn1ncc(OCc2nnc(-c3ccc(F)cc3)o2)c(Cl)c1=O`, for which the EC50 with Mythimna separata (read-out: EC50) is more than 300 µg/mL; in the series with Mythimna separata (read-out: pEC50 (converted)), more than 300 µM.
Molecule `CC(C)(C)n1ncc(OCc2nnc(-c3c(F)c(F)c(F)c(F)c3F)o2)c(Cl)c1=O` displayed a log partition coefficient (logP) in series [1] of 3.06. The EC50 was 271 µg/mL with Mythimna separata (read-out: EC50) and 271 µM in the series with Mythimna separata (read-out: pEC50 (converted)).
For the molecule `CC(C)(C)n1ncc(OCc2nnc(-c3cc(F)c(F)cc3F)o2)c(Cl)c1=O`, the logP in series [1] stood at 2.96. Besides, the EC50 in the series on Mythimna separata (read-out: EC50) was 75.7 µg/mL; in the series with Mythimna separata (read-out: pEC50 (converted)) it was 75.7 µM.
On to `COc1c(F)c(F)cc(-c2nnc(COc3cnn(C(C)(C)C)c(=O)c3Cl)o2)c1F`, for which the figures for the EC50 in the series on Mythimna separata (read-out: EC50) and in the series with Mythimna separata (read-out: pEC50 (converted)) were more than 300 µg/mL and more than 300 µM, respectively.
For `CC(C)(C)n1ncc(OCc2nnc(-c3ccc(Cl)cc3F)o2)c(Cl)c1=O`, the logP in series [1] worked out at 3.23. The EC50 was 10.4 µg/mL with Mythimna separata (read-out: EC50) and 10.4 µM with Mythimna separata (read-out: pEC50 (converted)).
The corresponding values for `CC(C)(C)n1ncc(OCc2nnc(-c3cc(F)c(F)c(F)c3F)o2)c(Cl)c1=O` are 3.18, 241 µg/mL and 240 µM.
The corresponding values for `CC(C)(C)n1ncc(OCc2nnc(-c3ccc(C(F)(F)F)cc3)o2)c(Cl)c1=O` are 3.66, 34.1 µg/mL and 33.8 µM.
As to `Cc1nnc(COc2cnn(C(C)(C)C)c(=O)c2Cl)o1`, the EC50 in the series with Mythimna separata (read-out: EC50) was more than 300 µg/mL; in the series with Mythimna separata (read-out: pEC50 (converted)), more than 300 µM.
Turning to `CC(C)(C)n1ncc(OCc2nnc(-c3ccco3)o2)c(Cl)c1=O`, the EC50 in the series on Mythimna separata (read-out: EC50) is more than 300 µg/mL; in the series with Mythimna separata (read-out: pEC50 (converted)) it was more than 300 µM.
Consider `CC(C)(C)n1ncc(OCc2nnc(-c3cccs3)o2)c(Cl)c1=O`, for which the EC50 was more than 300 µg/mL with Mythimna separata (read-out: EC50) and more than 300 µM in the series with Mythimna separata (read-out: pEC50 (converted)).
The corresponding values for `O=c1c(Cl)c(OCc2nnc(-c3ccccc3)o2)cnn1-c1ccccc1` are 91.5 µg/mL and 91.4 µM.
With `CCCCn1ncc(OCc2nnc(-c3ccccc3)o2)c(Cl)c1=O`, the figures for the EC50 with Mythimna separata (read-out: EC50) and in the series on Mythimna separata (read-out: pEC50 (converted)) were more than 300 µg/mL and more than 300 µM, respectively.
In the case of `CC(C)(C)n1ncc(OCc2nnc(-c3cc(F)c(Cl)cc3Cl)o2)c(Cl)c1=O`, the logP in series [1] turned out to be 3.36. Besides, the EC50 in the series on Mythimna separata (read-out: EC50) was 23.1 µg/mL; in the series on Mythimna separata (read-out: pEC50 (converted)), 23.1 µM.
For the molecule `CC(C)(C)n1ncc(SCc2nnc(-c3ccccc3)o2)c(Cl)c1=O`, the EC50 in the series on Mythimna separata (read-out: EC50) was more than 300 µg/mL; in the series on Mythimna separata (read-out: pEC50 (converted)) it was more than 300 µM.
The corresponding values for `CC(C)(C)n1ncc(SCc2nnc(-c3ccc(F)cc3)o2)c(Cl)c1=O` are 150 µg/mL and 151 µM.
The corresponding values for `CC(C)(C)n1ncc(SCc2nnc(-c3cccc(F)c3)o2)c(Cl)c1=O` are 243 µg/mL and 243 µM.
On the same counts, the results for `CC(C)(C)n1ncc(SCc2nnc(-c3ccccc3F)o2)c(Cl)c1=O` are 269 µg/mL and 270 µM.
On to `CC(C)(C)n1ncc(SCc2nnc(-c3ccc(Cl)cc3)o2)c(Cl)c1=O`, for which the EC50 is 180 µg/mL in the series with Mythimna separata (read-out: EC50) and 180 µM in the series on Mythimna separata (read-out: pEC50 (converted)).
On the same counts, the results for `Cc1cc(C)cc(-c2nnc(CSc3cnn(C(C)(C)C)c(=O)c3Cl)o2)c1` are more than 300 µg/mL and more than 300 µM.
On the same counts, the results for `Cc1cccc(-c2nnc(CSc3cnn(C(C)(C)C)c(=O)c3Cl)o2)c1` are more than 300 µg/mL and more than 300 µM.
On the same counts, the results for `CC(C)(C)n1ncc(SCc2nnc(-c3ccc([N+](=O)[O-])cc3)o2)c(Cl)c1=O` are more than 300 µg/mL and more than 300 µM.
In series [1], `CC(C)(C)n1ncc(OCc2nnc(-c3ccc(Br)cc3)o2)c(Cl)c1=O` showed a logP of 3.21. For the same molecule, the EC50 with Mythimna separata (read-out: EC50) was 21.4 µg/mL; with Mythimna separata (read-out: pEC50 (converted)), 21.4 µM.
`CC(C)(C)n1ncc(OCc2nnc(-c3ccc(Cl)cc3Cl)o2)c(Cl)c1=O` registered a logP in series [1] of 3.52. Further, the EC50 was 27.8 µg/mL in the series on Mythimna separata (read-out: EC50) and 27.8 µM in the series on Mythimna separata (read-out: pEC50 (converted)).
The corresponding values for `CC(C)(C)n1ncc(OCc2nnc(-c3ccccc3Cl)o2)c(Cl)c1=O` are 3.19, 61.2 µg/mL and 61.2 µM.
Regarding `CC(C)(C)n1ncc(OCc2nnc(-c3ccccc3)s2)c(Cl)c1=O`, the EC50 is 200 µg/mL with Mythimna separata (read-out: EC50) and 200 µM with Mythimna separata (read-out: pEC50 (converted)).
On the same counts, the results for `CC(C)(C)n1ncc(OCc2nnc(-c3ccc(F)cc3)s2)c(Cl)c1=O` are 21.5 µg/mL and 21.5 µM.
The corresponding values for `CC(C)(C)n1ncc(OCc2nnc(-c3ccccc3F)s2)c(Cl)c1=O` are 121 µg/mL and 121 µM.
With `CC(C)(C)n1ncc(OCc2nnc(-c3ccc(Cl)cc3)s2)c(Cl)c1=O`, the EC50 is 106 µg/mL in the series on Mythimna separata (read-out: EC50) and 106 µM in the series on Mythimna separata (read-out: pEC50 (converted)).
Turning to `CC(C)(C)n1ncc(OCc2nnc(-c3ccc(Cl)cc3Cl)s2)c(Cl)c1=O`, the EC50 with Mythimna separata (read-out: EC50) was 62.2 µg/mL; in the series on Mythimna separata (read-out: pEC50 (converted)), 62.2 µM.
For the molecule `CC(C)(C)n1ncc(OCc2nnc(-c3cc(F)c(Cl)cc3Cl)s2)c(Cl)c1=O`, the EC50 is 67.1 µg/mL in the series with Mythimna separata (read-out: EC50) and 67.1 µM in the series on Mythimna separata (read-out: pEC50 (converted)).
The corresponding values for `Cc1cccc(-c2nnc(COc3cnn(C(C)(C)C)c(=O)c3Cl)s2)c1` are more than 300 µg/mL and more than 300 µM.
On the same counts, the results for `Cc1cc(C)cc(-c2nnc(COc3cnn(C(C)(C)C)c(=O)c3Cl)s2)c1` are more than 300 µg/mL and more than 300 µM.
In series [1], `CC(C)(C)n1ncc(OCc2nnc(-c3c(F)cccc3F)o2)c(Cl)c1=O` returned a logP of 2.75. The EC50 in the series on Mythimna separata (read-out: EC50) is 45.4 µg/mL; with Mythimna separata (read-out: pEC50 (converted)), 45.4 µM.
Consider `CC(C)(C)n1ncc(OCc2nnc(-c3cc(F)c(Cl)c([N+](=O)[O-])c3Cl)o2)c(Cl)c1=O`, for which the figures for the EC50 with Mythimna separata (read-out: EC50) and in the series with Mythimna separata (read-out: pEC50 (converted)) were more than 300 µg/mL and more than 300 µM, respectively.
`CC(C)(C)n1ncc(OCc2nnc(-c3ccccc3)o2)c(Cl)c1=O` returned a logP in series [1] of 2.95. Further, the EC50 in the series with Mythimna separata (read-out: EC50) is 12.2 µg/mL; in the series on Mythimna separata (read-out: pEC50 (converted)), 12.2 µM.
As for `CC(C)(C)n1ncc(OCc2nnc(-c3ccc([N+](=O)[O-])cc3)o2)c(Cl)c1=O`, the EC50 in the series with Mythimna separata (read-out: EC50) is more than 300 µg/mL; in the series with Mythimna separata (read-out: pEC50 (converted)) it was more than 300 µM.
With `Cc1cccc(-c2nnc(COc3cnn(C(C)(C)C)c(=O)c3Cl)o2)c1`, in series [1], the logP came to 3.02. Further, the EC50 with Mythimna separata (read-out: EC50) is 116 µg/mL; in the series with Mythimna separata (read-out: pEC50 (converted)), 116 µM.
Regarding `Cc1cc(C)cc(-c2nnc(COc3cnn(C(C)(C)C)c(=O)c3Cl)o2)c1`, the results for the EC50 in the series on Mythimna separata (read-out: EC50) and with Mythimna separata (read-out: pEC50 (converted)) were more than 300 µg/mL and more than 300 µM, respectively.
The molecule `Cc1ccc(-c2nnc(COc3cnn(C(C)(C)C)c(=O)c3Cl)o2)cc1` returned a logP in series [1] of 3.01. Also, the EC50 was 19.9 µg/mL in the series with Mythimna separata (read-out: EC50) and 19.9 µM in the series with Mythimna separata (read-out: pEC50 (converted)).
On the same counts, the results for `CC(C)(C)n1ncc(OCc2nnc(-c3ccc(F)cc3)o2)c(Cl)c1=O` are 2.69, 5.2 µg/mL and 5.2 µM.
The corresponding values for `CCc1ccc(-c2nnc(COc3cnn(C(C)(C)C)c(=O)c3Cl)o2)cc1` are 3.52, 14.5 µg/mL and 14.5 µM.
Take `CC(C)(C)n1ncc(OCc2nnc(-c3ccc(Cl)cc3)o2)c(Cl)c1=O`: the logP in series [1] was 3.09. In addition, the EC50 in the series with Mythimna separata (read-out: EC50) is 1.9 µg/mL; in the series on Mythimna separata (read-out: pEC50 (converted)), 1.9 µM.
On the same counts, the results for `COc1ccc(-c2nnc(COc3cnn(C(C)(C)C)c(=O)c3Cl)o2)cc1` are 3.52, 17.7 µg/mL and 17.7 µM.
On the same counts, the results for `CC(C)(C)n1ncc(OCc2nnc(-c3cccc(F)c3)o2)c(Cl)c1=O` are 2.69, 7.1 µg/mL and 7.1 µM.
For the molecule `C/C=C(\C)C(=O)O[C@H]1C[C@@H](OC(C)=O)[C@@]2(C(=O)OC)CO[C@H]3[C@@H](O)[C@@](C)([C@]45O[C@@]4(C)[C@@H]4C[C@H]5O[C@@H]5OC=C[C@@]54O)[C@H]4[C@]1(CO[C@]4(O)C(=O)OC)[C@@H]32` [AZADIRACHTIN A], the EC50 in the series on Mythimna separata (read-out: EC50) is 0.58 µg/mL; in the series with Mythimna separata (read-out: pEC50 (converted)), 0.579 µM.

In general, logP refers to the decadic logarithm of the partition coefficient of the neutral form, usually between octanol and water.
